Data published in ChEMBL document CHEMBL1143621, “Identification and structure-activity relationship of phenolic acyl hydrazones as selective agonists for the estrogen-related orphan nuclear receptors ERRbeta and ERRgamma” (J Med Chem, 2005).

What follows are compounds tested against T1, Estrogen-related receptor gamma (Homo sapiens, UniProt P62508) (assay: Inhibition of [3H]4-OHT binding to Estrogen-Related Receptor gamma).
T1 sequence (P62508 whole entry): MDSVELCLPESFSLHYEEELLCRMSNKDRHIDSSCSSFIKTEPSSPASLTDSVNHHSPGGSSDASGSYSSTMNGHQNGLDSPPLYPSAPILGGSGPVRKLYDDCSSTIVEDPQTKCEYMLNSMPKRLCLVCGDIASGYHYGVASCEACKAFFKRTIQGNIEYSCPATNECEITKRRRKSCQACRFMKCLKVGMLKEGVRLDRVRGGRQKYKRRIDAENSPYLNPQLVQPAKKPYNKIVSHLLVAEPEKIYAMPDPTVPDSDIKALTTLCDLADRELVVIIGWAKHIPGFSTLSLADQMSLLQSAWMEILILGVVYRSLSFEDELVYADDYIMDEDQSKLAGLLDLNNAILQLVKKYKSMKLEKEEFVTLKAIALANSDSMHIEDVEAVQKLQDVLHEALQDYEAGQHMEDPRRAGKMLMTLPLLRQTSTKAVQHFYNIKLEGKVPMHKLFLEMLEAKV

IC50 [nM] | Compound
660 | CCN(CC)c1ccc(/C=N/NC(=O)c2ccc(O)cc2)cc1

The compounds below were run against T1, Estrogen-related receptor gamma (assay: Estrogen-Related Receptor gamma activity in FRET assay).
Assay type: functional; call rule not given here

Compound | EC50 [nM]
CCN(CC)c1ccc(/C=N/NC(=O)c2ccc(N)cc2)cc1 | 630
CCN(CC)c1ccc(/C=N/NC(=O)c2ccccc2)cc1 | 1600

More lines, now with the values ahead:

EC50 [nM] | Compound
130 | CCN(CC)c1ccc(/C=N/NC(=O)c2ccc(O)cc2)cc1
500 | CCN(CC)c1ccc(/C(C)=N/NC(=O)c2ccc(O)cc2)cc1

Each compound was assayed against T1, Estrogen-related receptor gamma (assay: Estrogen-Related Receptor gamma activity in FRET assay; i.a.=inactive at 3 uM).
Assay type: functional

Compound | EC50
CCN(CC)c1ccc(/C=N/NS(=O)(=O)c2ccc(O)cc2)cc1 | Not Active
CC(C)(C)Oc1ccc(/C=N/NC(=O)c2ccc(O)cc2)cc1 | Not Active
CC(C)c1ccc(C(=O)NNC(=O)c2ccc(O)cc2)cc1 | Not Active

The next lines start with the values.

EC50 | Compound
Not Active | CCN(CC)c1ccc(/C=N/NC(=O)c2ccc(F)cc2)cc1
Not Active | CCN(CC)c1ccc(/C=N/NC(=O)c2ccc(O)cc2)c(O)c1
